Reference: ChEMBL document CHEMBL5154868, “Novel Selective Galectin-3 Antagonists Are Cytotoxic to Acute Lymphoblastic Leukemia” (J Med Chem, 2022)

Experiments:
Galectin-4 [1] = molecular target: T1, Galectin-4 (Homo sapiens, UniProt P56470)
T1 sequence (P56470 whole entry): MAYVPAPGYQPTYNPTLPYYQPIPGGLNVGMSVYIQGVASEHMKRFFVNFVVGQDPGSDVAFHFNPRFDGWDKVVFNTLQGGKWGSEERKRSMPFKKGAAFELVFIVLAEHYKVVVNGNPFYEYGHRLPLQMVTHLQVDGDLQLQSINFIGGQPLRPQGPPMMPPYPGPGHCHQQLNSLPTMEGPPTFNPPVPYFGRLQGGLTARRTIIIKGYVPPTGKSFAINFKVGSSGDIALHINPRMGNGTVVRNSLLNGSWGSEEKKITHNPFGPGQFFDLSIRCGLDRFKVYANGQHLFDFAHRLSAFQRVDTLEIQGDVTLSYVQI

[2] = molecular target: T2, Galectin-4 (Homo sapiens) (UniProt P56470); test: Antagonist activity against human galectin-4N expressed in Escherichia coli BL21 assessed as inhibition of galectin-4N at 2 mM using 3,3'-dideoxy-3-[4-(fluorescein-5-yl-carbonylaminomethyl)-1H-1,2,3-triazol-1-y1]-3'-(3,5-dimethoxy-benzamido)-1,1'-sulfanediyl-di-beta-D-galactopyranoside as fluorescent probe by fluorescence polarization analysis relative to control
T2 sequence (whole entry): T1 sequence (P56470 whole entry)

Galectin-1 = Galectin-1 (Homo sapiens, UniProt P09382); test: Binding affinity to human galectin-1 using 3,3'-dideoxy-3-[4-(fluorescein-5-yl-carbonylaminomethyl)-1H-1,2,3-triazol-1-y1]-3'.(3,5-dimethoxy-benzamido)-1,1'-sulfanediyl-di-beta-D-galactopyranoside as fluorescent probe by fluorescence polarization analysis
Galectin-3 = Galectin-3 (Homo sapiens, UniProt P17931)
Description: Binding affinity to human galectin-3 using 2-(fluorescein-5/6-yl-carbonylamino)-ethyl 2-acetamido-2-deoxy-alpha-D-galactopyranosyl-(1-3)-[alpha-L-fucopyranosyl-(1-2)]-beta-D-galactopyranosyl-(1-4)-beta-D-glucopyranoside by fluorescence polarization analysis

[3] = molecular target: T3, Galectin-8 (Homo sapiens) (UniProt O00214); test: Antagonist activity against human galectin-8N assessed as inhibition of galectin-8N at 2 mM by fluorescence polarization analysis relative to control
T3 sequence (whole entry): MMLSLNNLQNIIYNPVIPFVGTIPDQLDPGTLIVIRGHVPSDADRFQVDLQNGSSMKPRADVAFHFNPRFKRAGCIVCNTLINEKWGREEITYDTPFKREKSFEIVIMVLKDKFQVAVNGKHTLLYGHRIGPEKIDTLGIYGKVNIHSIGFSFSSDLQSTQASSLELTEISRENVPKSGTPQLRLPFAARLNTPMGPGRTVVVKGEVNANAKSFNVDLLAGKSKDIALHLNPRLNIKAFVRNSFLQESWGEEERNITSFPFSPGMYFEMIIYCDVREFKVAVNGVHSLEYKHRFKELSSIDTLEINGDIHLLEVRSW

LAX40 [4] = test: Cytotoxicity against human LAX40 patient-derived BCP-ALL cells co-cultured with irradiated OP9 stromal cells assessed as reduction in cell viability at 100 uM for 1 to 3 days by trypan blue staining based assay; format: functional; conditions: time 1-3 day, TDE = time-dependent effect
[5] = Cytotoxicity against human US7 patient-derived BCP-ALL cells co-cultured with irradiated OP9 stromal cells assessed as reduction in cell viability incubated for 24 hrs by Alamar blue assay; format: functional, cell-based; conditions: US7, light or radiation study
Galectin-8 [6] = molecular target: T4, Galectin-8 (Homo sapiens, UniProt O00214); test: Binding affinity to human galectin-8C expressed in Escherichia coli BL21(DE3) using 3,3'-dideoxy-3-[4-(fluorescein-5-yl-carbonylaminomethyl)-1H-1,2,3-triazol-1-y1]-3'-(3,5-dimethoxy-benzamido)-1,1'-sulfanediyl-di-beta-D-galactopyranoside as fluorescent probe by fluorescence polarization analysis
T4 sequence (O00214 whole entry): T3 sequence (whole entry)

LAX40 [7] = test: Cytostatic activity against human LAX40 patient-derived BCP-ALL cells co-cultured with irradiated OP9 stromal cells assessed as reduction in cell viability at 100 uM for 1 to 3 days by trypan blue staining based assay; format: functional; conditions: time 1-3 day, TDE = time-dependent effect
Galectin-4 [8] = molecular target: T1, Galectin-4; test: Binding affinity to human galectin-4N expressed in Escherichia coli BL21 using 3,3'-dideoxy-3-[4-(fluorescein-5-yl-carbonylaminomethyl)-1H-1,2,3-triazol-1-y1]-3'-(3,5-dimethoxy-benzamido)-1,1'-sulfanediyl-di-beta-D-galactopyranoside as fluorescent probe by fluorescence polarization analysis
[9] = Binding affinity to human galectin-1 C3S mutant by fluorescence polarization analysis
[10] = Cytotoxicity against mouse bone marrow-derived stromal OP9 cells assessed as live cells at 100 uM measured after 3 days by trypan blue staining based assay relative to control; format: toxicity, cell-based; conditions: time 3 day, read-out: Activity
TXL2 = test: Induction of cell death in human TXL2 patient-derived BCP-ALL cells assessed as reduction in viable cells at 0.5 to 800 uM incubated for 24 hrs by Alamar blue assay; format: functional, cell-based; conditions: dose 0.5-800 µM, DDE = dose-dependent effect
US7 = test: Induction of cell death in human US7 patient-derived BCP-ALL cells assessed as reduction in viable cells at 0.5 to 800 uM incubated for 24 hrs by Alamar blue assay; format: functional, cell-based; conditions: dose 0.5-800 µM, DDE = dose-dependent effect
Galectin-8 [11] = molecular target: T4, Galectin-8; test: Binding affinity to human galectin-8N using 3,3'-dideoxy-3-[4-(fluorescein-5-yl-carbonylaminomethyl)-1H-1,2,3-triazol-1-y1]-3'.(3,5-dimethoxy-benzamido)-1,1'-sulfanediyl-di-beta-D-galactopyranoside as fluorescent probe by fluorescence polarization analysis

Chain of Galectin-1 (P09382 whole entry): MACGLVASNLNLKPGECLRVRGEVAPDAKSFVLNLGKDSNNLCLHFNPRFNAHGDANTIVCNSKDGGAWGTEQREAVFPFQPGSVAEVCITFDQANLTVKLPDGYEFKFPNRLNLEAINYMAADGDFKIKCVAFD
Chain of Galectin-3 (P17931 whole entry): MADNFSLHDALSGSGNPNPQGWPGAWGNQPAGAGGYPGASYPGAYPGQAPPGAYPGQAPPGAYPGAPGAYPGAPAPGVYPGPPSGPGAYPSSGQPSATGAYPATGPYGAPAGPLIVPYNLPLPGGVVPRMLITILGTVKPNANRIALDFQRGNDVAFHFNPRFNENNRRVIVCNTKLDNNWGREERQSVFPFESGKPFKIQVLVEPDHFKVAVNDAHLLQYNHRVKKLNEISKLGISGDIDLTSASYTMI

| Compound | Kd (Galectin-4 [1]) | inhibition [2] | Kd (Galectin-1) | Kd (Galectin-3) | inhibition [3] | Activity (LAX40 [4]) | IC50 [5] | Kd (Galectin-8 [6]) | Activity (LAX40 [7]) | Kd (Galectin-4 [8]) | Kd [9] | viability at 72 h, 100 µM [10] | Activity (TXL2) | Activity (US7) | Kd (Galectin-8 [11]) |
| --- | --- | --- | --- | --- | --- | --- | --- | --- | --- | --- | --- | --- | --- | --- | --- |
| CO[C@@H]1O[C@H](CO)[C@H](O)[C@H](OC(=O)c2ccc(C)cc2)[C@@H]1OC(C)=O | 2900 µM | < 20% | 4100 µM | 420 µM | < 20% | – | – | – | – | – | – | – | – | – | – |
| CO[C@@H]1O[C@H](CO)[C@H](O)[C@H](OC(=O)c2ccc(C)cc2)[C@@H]1OC(=O)c1ccc(C(F)(F)F)cc1[N+](=O)[O-] | 40 µM | – | 4000 µM | – | < 20% | Tde | 83 µM | 1900 µM | Tde | 1400 µM | – | – | – | – | – |
| CO[C@@H]1O[C@H](CO)[C@H](O)[C@H](OC(=O)c2ccc(C)cc2)[C@@H]1OC(=O)c1ccc(F)cc1[N+](=O)[O-] | 6.5 µM | – | 2100 µM | – | < 20% | – | 150 µM | 900 µM | – | 710 µM | – | – | – | – | – |
| CO[C@@H]1O[C@H](CO)[C@H](O)[C@H](OC(=O)c2ccc(C)cc2)[C@@H]1OC(=O)c1cccc([N+](=O)[O-])c1 | 630 µM | – | 2700 µM | 130 µM | < 20% | – | 138 µM | 4000 µM | – | 1400 µM | – | – | – | – | – |
| CO[C@@H]1O[C@H](CO)[C@H](O)[C@H](OC(=O)c2ccc(C)cc2)[C@@H]1OC(=O)c1ccccc1[N+](=O)[O-] | 48 µM | – | – | – | < 20% | Tde | 307 µM | – | Tde | 440 µM | 1800 µM | ≥ 65% | Dde | Dde | – |
| CO[C@@H]1O[C@H](CO)[C@H](O)[C@H](OC(=O)c2ccc(C)cc2)[C@@H]1OC(=O)c1ccc(Cl)cc1[N+](=O)[O-] | 18 µM | – | 1400 µM | – | – | – | 128 µM | 450 µM | – | 250 µM | – | – | – | – | 4000 µM |
